Assay results taken from US12415777B2, “Fluorene derivative, and production method and use for same” (Osaka Gas Chemicals Co., Ltd., priority 2020, dated 2025).

Legend:
Solvent solubility test = assay type: physicochemical; parameters: key: A: Soluble; B: Soluble, but undissolved residue was visually confirmed; C: Insoluble; details: 3% by mass, stood overnight at room temperature (15 to 25° C.), visually observed; for Solubility in Dioxane: 1,4-dioxane; for Solubility in IPA: isopropanol; for Solubility in MEK: methyl ethyl ketone; for Solubility in MIBK: methyl isobutyl ketone; for Solubility in THF: tetrahydrofuran
Experimental: (Solvent Solubility Test)
For each sample and solvent, a sample and a solvent shown in Table 1 below were mixed in a concentration of 3% by mass, and a mixture was shaken by hand for about 10 minutes, and then allowed to stand overnight at a room temperature (temperature of 15 to 25° C.). After that, the solubility of the sample was visually observed and evaluated according to the following criteria. • A: Soluble • B: Soluble, but undissolved residue was visually confirmed • C: Insoluble (Flexural Test)
The results of the solubility test of the fluorene derivatives obtained in Examples 1 to 3 and Comparative Example 1 are shown in Table 1. In Table 1, IPA represents isopropanol, MEK represents methyl ethyl ketone, MIBK represents methyl isobutyl ketone, dioxane represents 1,4-dioxane, and THF represents tetrahydrofuran. As NIPAM-FL, the one prepared in Example 3A was used.

[1] = 5% mass reduction temperature (TG-DTA); assay type: physicochemical; details: nitrogen atmosphere, 50 to 400° C., heating rate 10° C./min
Experimental: (5% Mass Reduction Temperature)
The temperature, at which the mass of the sample is reduced by 5% by mass, was measured using a Thermogravimeter-Differential Thermal Analyzer (TG-DTA) (manufactured by PerkinElmer, Inc., “TGA-4000”) in a nitrogen atmosphere, under the condition of a measurement temperature range of 50 to 400° C. with a heating rate of 10° C./min.

Row | Compound | Solubility in Dioxane (Solvent solubility test) | Solubility in Acetone (Solvent solubility test) | Solubility in Chloroform (Solvent solubility test) | Solubility in Ethanol (Solvent solubility test) | Solubility in Ethyl acetate (Solvent solubility test) | Solubility in Hexane (Solvent solubility test) | Solubility in Methanol (Solvent solubility test) | Solubility in Toluene (Solvent solubility test) | Solubility in Water (Solvent solubility test) | Solubility in IPA (Solvent solubility test) | Solubility in MEK (Solvent solubility test) | Solubility in MIBK (Solvent solubility test) | Solubility in THF (Solvent solubility test) | 5% mass reduction temperature [1]
1 | CC(C)NC(=O)CCC1(CCC(=O)NC(C)C)c2ccccc2-c2ccccc21 [NIPAM-FL, 9,9-bis[2-(N-isopropylcarbamoyl)ethyl]fluorene] | C | C | C | C | C | C | A | C | C | C | C | B | C | 257 °C
2 | CCN(CC)C(=O)CCC1(CCC(=O)N(CC)CC)c2ccccc2-c2ccccc21 [DEAA-FL, 9,9-bis[2-(N,N-diethylcarbamoyl)ethyl]fluorene] | A | A | A | A | A | C | A | A | C | A | A | A | A | 294 °C
3 | CN(C)C(=O)CCC1(CCC(=O)N(C)C)c2ccccc2-c2ccccc21 [DMAA-FL, 9,9-bis[2-(N,N-dimethylcarbamoyl)ethyl]fluorene] | C | C | A | A | C | C | A | C | C | C | C | A | A | 318 °C
4 | NC(=O)CCC1(CCC(N)=O)c2ccccc2-c2ccccc21 [AAD-FL, 9,9-di-(β-carbamoyl-ethyl)fluorene, reference compound] | C | C | C | C | C | C | C | C | C | C | C | B | C | 320 °C
